Each structure is given as a SMILES string.

For the assay, the target named is Jak2 (human Jak2 kinase domain, amino acids 808-1132) (Homo sapiens (Human), UniProt O60674). In words: Jak2 inhibition assay (Omnia kinase assay). The format is biochemical. The following applies: read-out: Jak2 Enzyme (% inhibition at 1000 nM), Table 1; 1000 nM test compound.
Chain of Jak2 (human Jak2 kinase domain, amino acids 808-1132) (O60674 808-1132): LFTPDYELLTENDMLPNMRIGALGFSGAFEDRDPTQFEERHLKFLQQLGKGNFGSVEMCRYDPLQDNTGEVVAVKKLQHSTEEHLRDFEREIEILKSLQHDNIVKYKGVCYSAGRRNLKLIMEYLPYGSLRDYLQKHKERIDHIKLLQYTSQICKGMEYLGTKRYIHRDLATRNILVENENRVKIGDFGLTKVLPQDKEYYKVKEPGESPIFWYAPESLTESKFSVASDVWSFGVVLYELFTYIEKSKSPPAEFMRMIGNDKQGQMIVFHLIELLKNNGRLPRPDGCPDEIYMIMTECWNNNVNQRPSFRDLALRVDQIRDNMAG
The inhibition is the change of the read-out against control, counted positive when it falls. Consider `O=C(NOC[C@@H](O)CO)c1cnn2ccc(N3CCC[C@@H]3c3cc(F)ccc3F)nc12` [Example 88, 5-((R)-2-(2,5-difluorophenyl)pyrrolidin-1-yl)-N—((S)-2,3-dihydroxypropoxy)pyrazolo[1,5-a]pyrimidine-3-carboxamide], for which the inhibition at 1 µM came out at 15.1%.
On to `COCCNC(=O)c1cnn2ccc(N3CCC[C@@H]3c3cc(F)ccc3F)nc12` [Example 172, 5-((R)-2-(2,5-difluorophenyl)pyrrolidin-1-yl)-N-(2-methoxyethyl)pyrazolo[1,5-a]pyrimidine-3-carboxamide], for which the inhibition at 1 µM was 11%.
As for `COc1ccc(F)cc1[C@H]1CCCN1c1ccn2ncc(C(=O)NC[C@H](O)CO)c2n1` [Example 55, N—((S)-2,3-dihydroxypropyl)-5-((R)-2-(5-fluoro-2-methoxyphenyl)pyrrolidin-1-yl)pyrazolo[1,5-a]pyrimidine-3-carboxamide], the inhibition at 1 µM stood at 24.1%.
As for `COc1ccc(F)cc1[C@H]1CCCN1c1ccn2ncc(C(=O)NC[C@@H](O)CO)c2n1` [Example 56, N—((R)-2,3-dihydroxypropyl)-5-((R)-2-(5-fluoro-2-methoxyphenyl)pyrrolidin-1-yl)pyrazolo[1,5-a]pyrimidine-3-carboxamide], the inhibition at 1 µM was found to be 28%.
The same measure for `CN1CCN(CCNC(=O)c2cnn3ccc(N4CCC[C@@H]4c4cc(F)ccc4F)nc23)CC1` [Example 171, 5-((R)-2-(2,5-difluorophenyl)pyrrolidin-1-yl)-N-(2-(4-methylpiperazin-1-yl)ethyl)pyrazolo[1,5-a]pyrimidine-3-carboxamide]: 7.8%; for `Cc1ncc(F)cc1[C@H]1CCCN1c1ccn2ncc(C(=O)NC(C)(C)C)c2n1` [Example 183, (R)-N-tert-butyl-5-(2-(5-fluoro-2-methylpyridin-3-yl)pyrrolidin-1-yl)pyrazolo[1,5-a]pyrimidine-3-carboxamide]: -0.8%.
On to `Cn1cc(F)cc([C@H]2CCCN2c2ccn3ncc(C(=O)NC4CCC4)c3n2)c1=O` [Example 230, (R)-N-cyclobutyl-5-(2-(5-fluoro-1-methyl-2-oxo-1,2-dihydropyridin-3-yl)pyrrolidin-1-yl)pyrazolo[1,5-a]pyrimidine-3-carboxamide], for which the inhibition at 1 µM came out at 53.3%.
Take `Cn1cc(F)cc([C@H]2CCCN2c2ccn3ncc(C(=O)Nc4ccc(F)cn4)c3n2)c1=O` [Example 239, (R)-5-(2-(5-fluoro-1-methyl-2-oxo-1,2-dihydropyridin-3-yl)pyrrolidin-1-yl)-N-(5-fluoropyridin-2-yl)pyrazolo[1,5-a]pyrimidine-3-carboxamide]: the inhibition at 1 µM was 15.5%.
In the case of `C[C@@H](CO)NC(=O)c1cnn2ccc(N3CCC[C@@H]3c3cncc(F)c3)nc12` [Example 116, 5-((R)-2-(5-fluoropyridin-3-yl)pyrrolidin-1-yl)-N-((S)-1-hydroxypropan-2-yl)pyrazolo[1,5-a]pyrimidine-3-carboxamide], the inhibition at 1 µM is 4.7%.
As for `CC(C)(N)CNC(=O)c1cnn2ccc(N3CCC[C@@H]3c3cc(F)ccc3F)nc12` [Example 58, (R)—N-(2-amino-2-methylpropyl)-5-(2-(2,5-difluorophenyl)pyrrolidin-1-yl)pyrazolo[1,5-a]pyrimidine-3-carboxamide], the inhibition at 1 µM was 4.7%.
Consider `COc1ncc(F)cc1[C@H]1CCCN1c1ccn2ncc(C(=O)NC3CCN(S(C)(=O)=O)CC3)c2n1` [Example 162, (R)-5-(2-(5-fluoro-2-methoxypyridin-3-yl)pyrrolidin-1-yl)-N-(1-(methylsulfonyl)piperidin-4-yl)pyrazolo[1,5-a]pyrimidine-3-carboxamide], for which the inhibition at 1 µM was 66.2%.
Consider `C[C@@H](O)CNC(=O)c1cnn2ccc(N3CCC[C@@H]3c3cncc(F)c3)nc12` [Example 110, 5-((R)-2-(5-fluoropyridin-3-yl)pyrrolidin-1-yl)-N-((R)-2-hydroxypropyl)pyrazolo[1,5-a]pyrimidine-3-carboxamide], for which the inhibition at 1 µM is -0.5%.

The record behind these values is patent US10251889B2, “Substituted pyrazolo[1,5-a]pyrimidine compounds as Trk kinase inhibitors” (Array BioPharma, Inc., priority 2009, dated 2019).
